Laboratory results reported in US5677327A, “Method for identifying muscarinic agents lacking miotic side effects” (priority 1995, dated 1997).
Where two headings read alike, the source gives them in different places.

Legend:
[1] = molecular target: T1, human m3 receptor subtype (Homo sapiens, UniProt P20309); assay: Agonist-induced hydrolysis of inositol phospholipids (PI hydrolysis) in CHO-K1 cells expressing m3; assay type: cell-based; conditions: for Emax: CHO-K1, 0.5 h, read-out: MAXIMUM RESPONSE BY MUSCARINIC AGONISTS, m3 cells; for EC50: CHO-K1 m3 cells, EC50 calculated as 50% of the maximum response of the PI hydrolysis, read-out: POTENCY ON PI HYDROLYSIS, EC 50, m3 cells
T1 construct: expressed in transfected cells
T1 sequence (P20309 whole entry): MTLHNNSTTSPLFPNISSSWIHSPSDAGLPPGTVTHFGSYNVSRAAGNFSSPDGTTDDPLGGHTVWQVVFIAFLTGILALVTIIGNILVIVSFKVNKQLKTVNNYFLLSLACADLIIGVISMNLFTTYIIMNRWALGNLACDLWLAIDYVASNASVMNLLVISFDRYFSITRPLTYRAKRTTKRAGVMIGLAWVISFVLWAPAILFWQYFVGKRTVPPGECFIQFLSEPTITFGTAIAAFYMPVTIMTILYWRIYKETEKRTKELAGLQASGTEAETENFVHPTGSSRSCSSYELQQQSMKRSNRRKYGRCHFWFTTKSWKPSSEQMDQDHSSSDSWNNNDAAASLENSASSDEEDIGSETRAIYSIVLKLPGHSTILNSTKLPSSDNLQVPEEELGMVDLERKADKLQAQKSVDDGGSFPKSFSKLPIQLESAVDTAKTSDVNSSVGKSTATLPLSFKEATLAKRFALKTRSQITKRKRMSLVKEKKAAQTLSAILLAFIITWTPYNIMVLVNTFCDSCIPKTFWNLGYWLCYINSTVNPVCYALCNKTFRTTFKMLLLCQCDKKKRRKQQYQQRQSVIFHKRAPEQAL
Description: (§1) Chinese hamster ovary (CHO-K1) cells stably expressing the human m3 or m5 receptor subtype were grown to confluency in DMEM/F12 medium containing 10% fetal calf serum and 1 unit/ml penicillin/streptomycin in a 37° C. incubator. Activity of muscarinic agonists in these cells was determined by measuring agonist induced hydrolysis of inositol phospholipids. Confluent cells plated at 0.1×10^6 cells/well in a 24-well dish were incubated in medium containing 4 μCi/ml myo-[2-^3 H] inositol overnight. This labels the inositol phospholipids in the cells. The next morning, the cells were washed to remove excess medium and incubated for 10 minutes before and 30 minutes after the addition of various muscarinic agonists in assay buffer containing 10 mM LiCl. The hydrolysis of inositol phospholipids generates inositol phosphates which were extracted and separated on dowex-formate columns and radioactivity determined. Radioactivity of the unhydrolyzed inositol phospholipids was also determined and percent hydrolysis calculated as a measure of agonist activity.
(§2) The EC50 was calculated as 50% of the maximum response of the PI hydrolysis

[2] = molecular target: T2, human m5 receptor subtype (Homo sapiens, UniProt P08912); assay: Agonist-induced hydrolysis of inositol phospholipids (PI hydrolysis) in CHO-K1 cells expressing m5; assay type: cell-based; conditions: for Emax: CHO-K1, 0.5 h; for EC50: CHO-K1 m5 cells, EC50 calculated as 50% of the maximum response of the PI hydrolysis, read-out: POTENCY ON PI HYDROLYSIS, EC 50, m5 cells; for m3/m5 ratio: ratio of EC50 at m3 to EC50 at m5, 30 min
T2 construct: expressed in transfected cells
T2 sequence (P08912 1-532): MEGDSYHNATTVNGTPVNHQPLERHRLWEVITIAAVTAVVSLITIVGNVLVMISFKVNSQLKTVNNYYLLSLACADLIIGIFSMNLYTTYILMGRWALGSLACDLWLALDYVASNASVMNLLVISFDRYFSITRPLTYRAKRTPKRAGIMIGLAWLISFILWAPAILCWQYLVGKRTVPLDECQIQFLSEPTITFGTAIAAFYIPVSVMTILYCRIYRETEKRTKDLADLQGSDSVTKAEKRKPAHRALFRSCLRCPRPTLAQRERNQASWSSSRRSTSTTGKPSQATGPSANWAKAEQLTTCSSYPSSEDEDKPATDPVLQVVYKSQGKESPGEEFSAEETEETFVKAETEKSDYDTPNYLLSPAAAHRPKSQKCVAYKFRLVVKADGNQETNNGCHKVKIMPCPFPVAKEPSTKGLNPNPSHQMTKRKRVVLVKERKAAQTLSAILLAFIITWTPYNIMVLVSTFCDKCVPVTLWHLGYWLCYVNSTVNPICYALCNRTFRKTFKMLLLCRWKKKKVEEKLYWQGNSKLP
Description: as §1, §2

[3] = Test for lowering IOP and miosis; assay type: in vivo; conditions: for IOP-lowering: in vivo; for miosis: side effect when tested for lowering IOP
[4] = read-out: MAXIMUM RESPONSE BY MUSCARINIC AGONISTS, m5 cells, read-out: MAXIMUM RESPONSE BY […] AGONISTS, m5 cells

Row | Structure (SMILES) | Emax [1] [%] | EC50 [1] [nM] | Emax [2, 4] [%] | EC50 [2] [nM] | m3/m5 ratio [2] | IOP-lowering [3] | miosis [3] | Emax ([2]; read-out: MAXIMUM RESPONSE BY MUSCARINIC AGONISTS, m5 cells) [%] | Emax ([2]; read-out: hydrolysis elicited relative to carbachol at the m5 receptor) [%]
1 | CC[C@H]1C(=O)NC[C@@H]1Cc1cncn1C [AGN 190456, 3R, 4R-ethyl-[(1-methyl-1H-imidazol-5-yl)methyl]-2-pyrrolidinone] | 70 ± 7 | 20000 | 84 ± 11 | 5000 | 4 | effective | minimal miosis | – | –
2 | CC1CCC(=O)N1CC#CCN1CCC1 (centres unmarked) [BR-370, N-(4-Azetidinyl-2-butynyl)-5-methyl-2-pyrrolidone] | 96 ± 40 | 800 | – | 700 | – | – | – | 110 ± 8 | –
3 | C[N+](C)(C)CCOC(N)=O [CARBACHOL, carbachol] | – | – | 100 | – | – | – | – | – | –
4 | CC(=O)N(C)C(C)C#CCN1CCCC1 (centres unmarked) [BM-5, N-Methyl-N-(1-methyl-4-pyrrolidino-2-butynyl)acetamide] | 30 ± 3 | 300 | 30 ± 2 | 60 | 5 | IOP-lowering | miosis | – | 30
